Drawing on patent US3956292A, “7-(α-FUROYLUREIDOARYL AND CYCLOHEXADIENYLACETAMIDO) CEPHALOSPORIN ANTIBIOTICS” (Eli Lilly and Company, priority 1975, dated 1976), this text covers MIC for two molecules.

≈ marks a conversion by molar mass, not a printed value. Read-outs that look alike come from different tables or passages of the source. Some results are limits rather than exact numbers.

As usually defined, the MIC is the lowest concentration found to suppress growth.

Format in all cases: cell-based
Test [1] has as its system Resistant Staphylococcus V-32. Briefly: Antibiotic activity vs. penicillin resistant Staphylococcus clinical isolates, MIC by gradient plate method. On the procedure: (§1) The antibiotic activity of the compounds of the invention is illustrated by the in vitro data presented in the following Tables I and II for two of the preferred compounds. In the tables, the minimum inhibitory concentrations (MIC) of the test compounds versus the indicated gram-positive and gram-negative microorganisms is presented. The MIC values were determined by the gradient plate method which is essentially the method described by Bryson and Szybalski, Science, 116, 45-46 (1952).
(§2) Table II lists the inhibitory activity in terms of MIC values against clinical isolates of penicillin resistant Staphylococcus microorganisms both in the presence of and in the absence of serum.

Test [2] deals with Resistant Staphylococcus V-84. Described as above. Here is the method: as §1, §2
Test [3] concerns Resistant Staphylococcus X1.1. Described as above. On the procedure: as §1, §2
The subject of test [4] is Resistant Staphylococcus X-400. The description is as above. Here is the method:
as §1, §2

The subject of test [5] is Resistant Staphylococcus V-41. Described as above. Here is the method: as §1, §2
Another test relates to Klebsiella pneumoniae. The test is described as follows: Antibiotic activity in vitro, MIC by gradient plate method. On the procedure:
as §1, §2

A further test relates to Shigella sp. The description is as above. On the procedure: as §1, §2
The next test relates to Escherichia coli. The description is as above. Here is the method:
as §1, §2

A further test concerns Pseudomonas aeruginosa. The description is as above. Here is the method:
as §1, §2

For the next test, the system named is Salmonella heidelberg. The test is described as above. As to conditions: Salmonella enterica. On the procedure: as §1, §2
The subject of a further test is Serratia marcescens. The test is described as above. Here is the method:
as §1, §2

For a further test, the system named is Aerobacter aerogenes. Described as above. As to conditions: Klebsiella aerogenes. Here is the method: as §1, §2
Where [6] appears, read: Staphylococcus, absence of serum (NS), read-out: MIC.

For `Cn1nnnc1SCC1=C(C(=O)O)N2C(=O)C(NC(=O)C(NC(=O)NC(=O)c3ccco3)c3ccc(O)cc3)C2SC1` (stereo not drawn) [Test Compound B, 7-[α-(3-α-furoyl-1-ureido)-α-(4-hydroxyphenyl)acetamido]-3-(1-methyl-1H-tetrazole-5-ylthiomethyl)-3-cephem-4-carboxylic acid], the MIC was 13.7 µg/mL (≈ 22.3 µM) in test [1] (absence of serum (NS)); above 20 µg/mL in [1] (presence of serum (S)); 1 µg/mL (≈ 1.63 µM) in test [2] (absence of serum (NS)); 1 µg/mL in test [2] (presence of serum (S)); 1 µg/mL (≈ 1.63 µM) in test [3] (absence of serum (NS)); 1 µg/mL in test [3] (presence of serum (S)). Also, the MIC in [4] (setting [6]) is above 20 µg/mL; in test [4] (presence of serum (S)), above 20 µg/mL; in test [5] (absence of serum (NS)), 5 µg/mL (≈ 8.14 µM); in [5] (presence of serum (S)) it was above 20 µg/mL; in the test with Klebsiella pneumoniae, 6.3 µg/mL (≈ 10.3 µM); in the test on Shigella sp., 5.5 µg/mL (≈ 8.95 µM). The MIC against Escherichia coli stood at 5.8 µg/mL (≈ 9.44 µM); against Pseudomonas aeruginosa, 10.7 µg/mL (≈ 17.4 µM); against Salmonella heidelberg it was 5.8 µg/mL (≈ 9.44 µM); in the test with Serratia marcescens it was 14.5 µg/mL (≈ 23.6 µM); with Aerobacter aerogenes, 6.5 µg/mL (≈ 10.6 µM).

`Cn1nnnc1SCC1=C(C(=O)O)N2C(=O)C(NC(=O)C(NC(=O)NC(=O)c3ccco3)c3ccccc3)C2SC1` (stereo not drawn) [Test Compound A, 7-[α-(3-α-furoyl-1-ureido)-α-phenylacetamido]-3-(1-methyl-1H-tetrazole-5-ylthiomethyl)-3-cephem-4-carboxylic acid]: the MIC in test [1] (absence of serum (NS)) turned out to be 4.5 µg/mL (≈ 7.52 µM); in test [1] (presence of serum (S)) it was 8 µg/mL; in test [2] (absence of serum (NS)), 0.4 µg/mL (≈ 0.668 µM); in test [2] (presence of serum (S)), 1 µg/mL; in test [3] (absence of serum (NS)), 0.4 µg/mL (≈ 0.668 µM); in test [3] (presence of serum (S)), 1 µg/mL. The MIC in test [4] (setting [6]) is above 20 µg/mL; in test [4] (presence of serum (S)), above 20 µg/mL; in test [5] (absence of serum (NS)) it was 3 µg/mL (≈ 5.01 µM); in test [5] (presence of serum (S)) it was 8 µg/mL; against Klebsiella pneumoniae it was 5 µg/mL (≈ 8.35 µM); in the test with Shigella sp., 5.5 µg/mL (≈ 9.19 µM). Further, the minimal inhibitory concentration (MIC) is 7 µg/mL (≈ 11.7 µM) against Escherichia coli; 12.3 µg/mL (≈ 20.5 µM) in the test on Pseudomonas aeruginosa; 6.8 µg/mL (≈ 11.4 µM) against Salmonella heidelberg; 19.5 µg/mL (≈ 32.6 µM) with Serratia marcescens; 7.5 µg/mL (≈ 12.5 µM) against Aerobacter aerogenes.
